Test results reported in patent US20210290537A1, “LIPOSOMAL ELINAFIDE FORMULATIONS AND USES THEREOF” (MALLINCKRODT LLC, priority 2016, published 2021).
Read-outs that look alike come from different tables or passages of the source.

Assays:
[1] = test system: HT-29 human colorectal adenocarcinoma cells; assay: In vitro IC50 cytotoxicity, Alamar Blue cell viability; assay type: cell-based
Protocol: HT-29 human colorectal adenocarcinoma cells (#HTB-38, ATCC, Manassas, Va.) were plated in 96-well tissue culture plates (Costar #3595) at 5×10^3 cells/well in a final volume of 0.1 mL of 10% fetal bovine serum in McCoy's 5A (#10-050-CV, Mediatech, Manassas, Va.). Defined fetal bovine serum was obtained from HyClone (#SH30070.03, lot #AWB96395, Logan, Utah). Plates containing cells were incubated at 37° C. in 5% CO2 in humidified air for 24 hr. The selected initial cell plating density was chosen based upon the approximate doubling time of the human tumor cell line.
Test compounds were diluted from stock solutions to 2.2 mmol/L in Dulbecco's modified phosphate-buffered saline (DPBS; Mediatech, Inc., lot #21031339, Manassas, Va.), then serially diluted three-fold in DPBS to generate a nine point dose-response curve. Ten microliters of diluted test compounds were added to wells in triplicate to achieve the desired final concentration of test compounds. Plates containing cells with and without added test compounds were returned to incubation as described above.
For the two hour cytotoxicity assessment, medium was removed after two hours of drug exposure and replaced with 0.1 mL/well culture medium, and cells were incubated for an additional 70 hours as above.
For the twenty-four hour cytotoxicity assessment, medium was removed after one day of drug exposure and replaced with 0.1 mL/well culture medium, and cells were returned to incubation for an additional 48 hours. Subsequently, cell viability was assessed using Alamar Blue. For this purpose, media was removed by pipetting from cultured cells and replaced with 0.1 mL/well of 10% (v/v) Alamar Blue (#BUFO12A, AbD Serotec, Raleigh, N.C.) diluted in the appropriate cell culture media. Plates were then returned to incubation as before for appropriate color development, between two to four hours.
Fluorescence of individual plate wells was measured at 545 nm/590 nm (excitation/emission) using a BioTek Synergy4 microplate reader. Cell viability was calculated as a percentage of measured fluorescence obtained relative to cells treated with culture media alone. IC50 values (μmol/L) were determined with the mean of triplicate values using nonlinear regression analysis and a four-parameter logistic model.

[2] = MTD of liposomal and free naphthalimides and azonifides; assay type: in vivo
[3] = phase I studies / clinical development, background; cited from earlier work
[4] = Single-dose muscle myopathy study, 14-day observation; assay type: in vivo; conditions: for Myopathy / Survival: rats, 14 days
Description: Rats that loss greater than 20% of its body weight were dropped from the study. […]

in vivo = conditions: rat, plasma, 20 mg/kg
[5] = Homo sapiens, 2 h, Table 7, read-out: 2 hr Tx (IC50)
[6] = Homo sapiens, 24 h, Table 7, read-out: 24 hr Tx (IC50)
[7] = Homo sapiens, 48 h, Table 7, read-out: 48 hr Tx (IC50)
[8] = mouse, in vivo, male athymic nude mice, read-out: MTD
[9] = Table 7, read-out: 2 hr Tx (IC50)
[10] = Table 7, read-out: 24 hr Tx (IC50)
[11] = Table 7, read-out: 72 hr Tx (IC50)

With `CN(C)CCN1C(=O)c2cccc3cc(N)cc(c23)C1=O` [Amonafide Free, Amonafide] as the compound, how does the IC50 [1, 5] read?
The IC50 was 90300 nM.

And the IC50 [1, 6]?
The IC50 was 34200 nM.

And the IC50 [1, 7]?
The IC50 was 15700 nM.

What about the MTD [2, 8] of the same compound?
Its MTD is 45 mg/kg.

And the “dose-limiting toxicity in clinical study” value [3]?
The value was “high variability and dose-limiting toxicity”.

Which results are given for `CN(C)CCN1C(=O)c2cccc3cc4ccccc4c(c23)C1=O` [Azonifide Free, Azonifide]?
IC50 [1, 5]: 1170 nM; IC50 [1, 6]: 256 nM; IC50 [1, 7]: 283 nM; IC50 ([1]; Homo sapiens, 72 h, Table 7, read-out: 72 hr Tx (IC50)): 386 nM; MTD [2, 8]: 10 mg/kg

For `C[C@H](CNCCNC[C@@H](C)N1C(=O)c2cccc3cc([N+](=O)[O-])cc(c23)C1=O)N1C(=O)c2cccc3cc([N+](=O)[O-])cc(c23)C1=O` [DMP-840], which “dose-limiting toxicity in clinical study” value [3] is on record?
Its value is “dose limiting toxicity”.

Which “muscle myopathy in treated rats” value ([4]; administration at MTD, single dose) does the source give for `O=C1c2cccc3cccc(c23)C(=O)N1CCNCCCNCCN1C(=O)c2cccc3cccc(c23)C1=O` [Free Elinafide, Elinafide] here?
Its value is “significant muscle myopathy”.

And the Myopathy ([4]; 25 mg/kg, F)?
Its Myopathy is 1/3.

What about the Survival ([4]; 25 mg/kg, F) of the same compound?
The Survival was 3/3.

What about the Myopathy ([4]; 25 mg/kg, M) of the same compound?
Its Myopathy is 2/3.

What about the Survival ([4]; 25 mg/kg, M) of the same compound?
The Survival was 3/3.

And the Myopathy ([4]; 35 mg/kg, F)?
Its Myopathy is 3/3.

What about the Survival ([4]; 35 mg/kg, F) of the same compound?
Its Survival is 3/3.

And the Survival ([4]; 35 mg/kg, M)?
Its Survival is 0/3.

What about the AUC (in vivo) of the same compound?
Its AUC is 4.7 ng·h/mL.

What about the Cmax (in vivo) of the same compound?
The Cmax was 1.4 ng/mL.

And the Vd (in vivo)?
Its Vd is 204000.

And the half-life (in vivo)?
Its half-life is 53.5 h.

What about the “dose-limiting toxicity in clinical study” value [3] of the same compound?
Its value is “cumulative dose-limiting neuro-muscular toxicity and myelosuppression”.

With `CN(C)CCN1C(=O)c2cccc3cc(NC(N)=O)cc(c23)C1=O` [UNBS-5162 Free, UNBS-5162] as the compound, how does the IC50 [1, 9] read?
The IC50 was over 100000 nM.

And the IC50 [1, 10]?
The IC50 was 24800 nM.

What about the IC50 [1, 11] of the same compound?
The IC50 was 31300 nM.

And the MTD ([2]; male athymic nude mice)?
Its MTD is 45 mg/kg.

What about the “dose-limiting toxicity in clinical study” value [3] of the same compound?
Its value is “dose limiting toxicity”.

For `CN(C)CCN1C(=O)c2cccc3cc([N+](=O)[O-])cc(c23)C1=O` [mitonafide], which “dose-limiting toxicity in clinical study” value [3] is on record?
The value was “dose limiting toxicity”.

Which IC50 [1, 9] does the source give for Ethonafide [Ethonafide Free] here?
The IC50 was 751 nM.

What about the IC50 [1, 10] of the same compound?
The IC50 was 189 nM.

What about the IC50 [1, 11] of the same compound?
The IC50 was 388 nM.

And the MTD ([2]; mouse, in vivo)?
The MTD was 15 mg/kg.
